From patent US20230226176A1, “NOVEL IMMUNE ADJUVANT AND VACCINE COMPOSITION INCLUDING THE SAME” (REPUBLIC OF KOREA (ANIMAL AND PLANT […]), priority 2020, published 2023) come the findings set out here.

One experiment has as its system FMDV. On the set-up: species or system C57BL/6 mice. The conditions noted are these: mouse, in vivo.
The test system of the next experiment is porcine naive PBMCs. The format is cell-based, pigs.
Another experiment concerns SP antibodies in serum. On the set-up: species or system C57BL/6 mice. Particulars: mouse, in vivo.
Experiment [1] concerns porcine Mo-DCs. Put plainly: Inhibition of phagocytosis by cytochalasin D, cytokine ELISA in Mo-DCs. The conditions noted are these: 5 μg/mL CytD 45 min before 1 μg/mL antigen. For orientation: ELISA stands for enzyme-linked immunosorbent assay.
For experiment [2], the system named is porcine Mo-MΦs. The experiment is described as follows: Inhibition of phagocytosis by cytochalasin D, cytokine ELISA in Mo-MΦs.
Experiment [3] deals with porcine Mo-DCs. The format is cell-based, pigs.
The next experiment has as its system porcine PBMCs. The format is cell-based, pigs. The conditions noted are these: 12 hours.
In experiment [4] the test system is porcine Mo-MΦs. In kind it is cell-based, pigs.

As to `C/C(=C\COP(=O)([O-])OP(=O)([O-])[O-])CO.[Li+].[Li+].[Li+]` [HMP (H), (E)-1-hydroxy-2-methyl-2-butenyl 4-pyrophosphate lithium salt], the “increase of neutralizing antibody (VN titers)” value (from here on “increase”) with FMDV was “approximately 100 fold”. The “Cell proliferation, rank order” value with porcine naive PBMCs was “>antigen+iNKT cell agonist (G)”. The “antibody titers measured by SP-O ELISA compared to the control” value (shortened to “antibody titers … compared to the control”) with SP antibodies in serum is given as “significantly higher”.

With `C=C(C)CCOP(=O)([O-])OP(=O)([O-])[O-].[Li+].[Li+].[Li+]` [IPP (I), Isopentenyl pyrophosphate trilithium salt], in the experiment on FMDV, the VN titers entry is on record as “highest” and the “increase” value is given as “approximately 100 fold”. For the same molecule, the “Cell proliferation, rank order” value in the experiment with porcine naive PBMCs is given as “>antigen alone”. In addition, the “antibody titers … compared to the control” value in the experiment with SP antibodies in serum is “significantly higher”.

Consider `C=C1[C@@H](C)[C@H]2[C@H](Cc3ccccc3)NC(=O)[C@]23[C@H](OC(C)=O)/C=C/[C@@](C)(O)C(=O)[C@@H](C)C/C=C/[C@H]3[C@@H]1O` [CytD, cytochalasin D], for which the “expression of cytokine when antigen is co-cultured after CytD treatment” value in the experiment with porcine Mo-DCs [1] and with porcine Mo-MΦs [2] (5 μg/mL CytD 45 min before 1 μg/mL antigen) was “significantly suppressed” in each case. Also, the “IL-10 expression after CytD treatment” value in the experiment on porcine Mo-MΦs [2] (not significantly different from pretreatment levels) is given as “slightly suppressed”.

For the molecule `Nc1nc2ncc(C=O)nc2c(=O)[nH]1` [6-Formylpterin (F), 6-formylpterin], the VN titers result with FMDV is “high levels”. In addition, the “Cell proliferation, rank order” value in the experiment on porcine naive PBMCs is given as “>antigen+T cell agonist (R)”. Besides, the “antibody titers measured by SP-O ELISA” value in the experiment on SP antibodies in serum is given as “increased”.

Take TNFα: in the experiment with porcine Mo-DCs [3], the IL-1β is 432.97, the IL-6 amounted to 201.33, the IL-10 is given as 10.85 and the IL-12/23p40 was 135.67. In the experiment on porcine Mo-DCs [3], this molecule showed a TNFα of 74.00.

On to `CCCCCCCCCCCCCCCCCCCCCCCCCC(=O)N[C@@H](CO[C@H]1O[C@H](CO)[C@H](O)[C@H](O)[C@H]1O)[C@H](O)[C@H](O)CCCCCCCCCCCCCC` [α-Gal (G), α-galactosyl ceramide], for which, in the experiment with FMDV, the VN titers entry was “highest” and the “increase” value is “approximately 100 fold”. Besides, the “IL23A and IL23R expression” value in the experiment with porcine PBMCs is listed as “specifically highly expressed”. The “Cell proliferation, rank order” value in the experiment on porcine naive PBMCs was “>antigen+MAIT cell agonist (F)”. The “antibody titers … compared to the control” value in the experiment with SP antibodies in serum is reported as “significantly higher”.

B1: IL-4: rpIL-4 (R&D Systems, 20 ng/mL) for M2 MΦ polarization (protein, UniProt Q04745 25-133, looked up)
Interleukin-4: HKCDITLQEIIKTLNILTARKNSCMELPVTDVFAAPENTTEKETFCRASTVLRHIYRHHTCMKSLLSGLDRNLSSMANMTCSVHEAKKSTLKDFLERLKTIMKEKYSKC
In the experiment with porcine Mo-MΦs [4], B1 returned an IL-1β of 223.43, an IL-10 of 1.88 and an IL-12/23p40 of 29.00.
